Marks after values point to notes of the source that are not given here.
Assays:
[1] = tested on: murine mammary cancer cell line F3II (sarcomatoid carcinoma); test: Assay 1: inhibition of pulmonary metastatic colonization, i.v. inoculated F3II cells in BALB/c mice; type: in vivo
Experimental: (§1) Assay 1: Inhibition of Metastatic Colonization by the Application of Desmopressin 12-16 weeks old syngenic mice from the BALB/c strain weighing 25 g on average were used. As tumor cells, murine mammary cancer cell lines […] (sarcomatoid carcinoma) and LM3 (poorly differentiated adenocarcinoma) were used and kept in monolayer culture in minimum essential medium (MEM, Gibco, Grand Island, N.Y.), supplemented with 5% heat-inactivated bovine fetal serum, 2 mM glutamine and gentamicine 80 μg/ml ([…]. Farías, […]. Bal de Kier Joffé, Characterization of […], a Mammary Sarcomatoid Carcinoma Cell Line Originated From a Mouse Adenocarcinoma, J. Surg. Oncol. 1996, 62:288-97). In order to collect them, cells were trypsinized following conventional procedures. Desmopressin available from Ferring Pharmaceuticals (Malmo, Sweden) was used. Desmopressin as provided by Sigma Chemical Co. (St. Louis, Miss.) was also employed. Mice were inoculated with tumor cells at a concentration of 2×10^5 cells/0.3 ml MEM/mouse in the side vein of their tails, in accordance with the following schedule and using eight animals in each group: Coinjection with Desmopressin: tumor cells were preincubated in serum-free MEM and i.v. coinjected with desmopressin, at a final dose of 1 μg ([…] cells) or 2 μg (LM3 cells) per kg of body weight. Preincubation with Desmopressin: tumor cell suspensions were preincubated in serum-free MEM for 30-60 minutes at 37° C., in the presence of equivalent concentrations of desmopressin (80-160 ng/ml MEM). Then, cells were pelleted, resuspended in serum-free MEM and i.v. injected in the absence of desmopressin. Control: animals inoculated with tumor cells, with no desmopressin treatment. Three weeks after inoculation, lung weights were quantified and the number of pulmonary metastatic nodules was determined under the dissection microscope.

[2] = tested on: murine mammary cancer cell line LM3 (poorly differentiated adenocarcinoma); test: Assay 1: inhibition of pulmonary metastatic colonization, i.v. inoculated LM3 cells in BALB/c mice; type: in vivo
Experimental: as §1

[3] = tested on: breast carcinoma tumor cells F3II; test: Assay 2: extension of desmopressin action on experimental metastases (i.v. injection after tumor cell inoculation); type: in vivo, mice
Experimental: Assay 2: Extension of Desmopressin Action on Experimental Metastases Four groups of ten mice each were organized, and were inoculated with breast carcinoma tumor cells […], in accordance with the above description for Assay 1. Thereafter they were intravenously injected with desmopressin in 0.1 ml of physiological solution at different times (1.5 hours, 3 hours and 24 hours) after the inoculation with tumor cells. Quantification of pulmonary weights took place three weeks after tumoral inoculation. The results are depicted in FIG. 1, in which they are expressed as media±error standard. Similar results were obtained by quantifying the number of pulmonary metastatic nodules per animal.

[4] = tested on: F3II tumor cell suspensions; test: Assay 3A: cell survival of tumor cell suspensions, trypan blue; type: cell-based, murine; details: 80 ng/ml and 160 ng/ml; 1-5 hours at 37° C. in serum-free MEM
Experimental: Assay 3: Cell Survival and Cytotoxicity In Vitro
A. F3II tumor cell suspensions were incubated at 37° C. in serum-free MEM: in the absence of desmopressin, in the presence of desmopressin, at concentrations of 80 ng/ml, in the presence of desmopressin, at concentrations of 160 ng/ml.
After 1-5 hours, cellular viability was assessed by the trypan blue technique. The results are shown in FIG. 2, where the absence of desmopressin (squares) and the presence of desmopressin are represented at concentrations of 80 ng/ml (triangles) and of 160 ng/ml (circles).

[5] = tested on: mammary carcinoma murine model F3II; details: F3II cells in culture; 100 ng/ml at 1 μg/ml; cited from earlier work
[6] = mouse, in vivo; cited from earlier work
[7] = human, in vivo; cited from earlier work
[8] = in vivo, cited from earlier work

| SMILES | Number of median pulmonary nodules (range) ([1]; F3II cells preincubated 30-60 minutes at 37° C. with desmopressin (80-160 ng/ml MEM), injected in absence of desmopressin, three weeks) | Decrease in number of metastatic nodules ([1]; F3II cells, coinjection with desmopressin vs control) | Number of median pulmonary nodules (range) ([1]; F3II cells, i.v. coinjection with desmopressin, final dose 1 μg per kg, three weeks after inoculation, p < 0.01 vs control) | Incidence of metastatic nodules after tumor cell preincubation in vitro ([1]; F3II cells, preincubation with equivalent concentrations of desmopressin) | Number of median pulmonary nodules (range) ([2]; LM3 cells preincubated 30-60 minutes at 37° C. with desmopressin (80-160 ng/ml MEM), injected in absence of desmopressin, three weeks) | Decrease in number of metastatic nodules ([2]; LM3 cells, coinjection with desmopressin vs control) | Number of median pulmonary nodules (range) ([2]; LM3 cells, i.v. coinjection with desmopressin, final dose 2 μg per kg, three weeks after inoculation, p < 0.01 vs control) | Incidence of metastatic nodules after tumor cell preincubation in vitro ([2]; LM3 cells, preincubation with equivalent concentrations of desmopressin) | Extrapulmonary metastases ([3]; animals treated with desmopressin) | Inhibition of metastases (pulmonary weights, FIG. 1) ([3]; desmopressin i.v. 24 hours after inoculation of tumor cells, three weeks after inoculation) | Cell viability of tumor cell suspensions (trypan blue, FIG. 2) [4] | Breast cancer cell proliferation [5] | Urokinase secretion [5] | Effects of high dose in mice [6] | Thrombotic risk [7] [%] | Half-life ([8]; iv, 20 ug) [h] | Drug eliminated unmetabolized [8] [%] |
| --- | --- | --- | --- | --- | --- | --- | --- | --- | --- | --- | --- | --- | --- | --- | --- | --- | --- |
| NC(=O)CC[C@@H]1NC(=O)[C@H](Cc2ccccc2)NC(=O)[C@H](Cc2ccc(O)cc2)NC(=O)CCSSC[C@@H](C(=O)N2CCC[C@H]2C(=O)N[C@H](CCCN=C(N)N)C(=O)NCC(N)=O)NC(=O)[C@H](CC(N)=O)NC1=O [desmopressin, 1-deamino-8-D-arginine vasopressin] | 19 (3-66) | about 70% | 5 (0-12)* | did not lessen the incidence of metastatic nodules | 12 (8-37) | about 70% | 3 (1-18)* | did not lessen the incidence of metastatic nodules | No extrapulmonary metastases were found | inhibition of metastases was also effected | did not reduce cell viability | able to modulate | able to modulate | no relevant effects | 0.0001 | ≤ 2.67 | 60 |
| NC(=O)CC[C@@H]1NC(=O)[C@H](Cc2ccccc2)NC(=O)[C@H](Cc2ccc(O)cc2)NC(=O)[C@@H](N)CSSC[C@@H](C(=O)N2CCC[C@H]2C(=O)N[C@@H](CCCN=C(N)N)C(=O)NCC(N)=O)NC(=O)[C@H](CC(N)=O)NC1=O [vasopressin] | – | – | – | – | – | – | – | – | – | – | – | able to modulate | able to modulate | – | – | – | – |

From patent publication US6693082B2, “Method of inhibiting metastatic dissemination using desmopressin” (priority 1999, dated 2004)
